This assay concerns PMA-induced release of endogenous HB-EGF from human PBMCs from healthy donors. The experiment in a line: ELISA-based HB-EGF release assay, PMA-induced, PBMCs from healthy donors. The format is cell-based. Conditions: PBMC, Batimastat 10 μM, PMA 25 ng/ml, 24 hours. How it is done: In the following study, ELISA-based HB-EGF release assays were performed to analyze the inhibitory effects of the antibodies of the invention on PMA-induced release of endogenous HB-EGF from primary human material obtained from healthy donors using peripheral blood mononuclear cells (PBMCs).
In brief, on day 1, Nunc black MaxiSorp® 96-well plates (Thermo Fisher Scientific, USA) were coated overnight with 100 μl per well of mouse anti-human HB-EGF capture antibody (provided as part of the DuoSet ELISA kit) at 2 μg/ml TBS at 4° C. […]
After 4 times washing with 350 μl TBS-T (Carl Roth, Germany) per well on a 96-head plate washer (Tecan Group, Switzerland) and careful removal of all buffer traces after the fourth cycle, 100 μl streptavidin-AP (R&D Systems, USA) diluted 1:10,000 in TBS were added to each well and, again protected from direct light, plates were incubated at room temperature for 30 minutes. […] Using an infinite M1000 (Tecan Group, Switzerland) microplate reader, the fluorescence of each well was collected at an excitation wavelength of 435 nm and an emission wavelength of 555 nm.
A general note: In an ELISA, binding on a coated surface is turned into a signal by an enzyme label.

Each structure is given as a SMILES string.

The term inhibition denotes the percentage by which the read-out fell short of the control. A high value points to a strong effect. `CNC(=O)[C@H](Cc1ccccc1)NC(=O)[C@H](CC(C)C)[C@H](CSc1cccs1)C(=O)NO` [Batimastat] showed an inhibition at 10 µM of 100%.

Source of the values: patent US12404345B2, “Humanized antibodies against iRHOM2” (SCIRHOM GMBH, priority 2021, dated 2025).
